The text below walks through data of US7994204B2, “Binding inhibitor of sphingosine-1-phosphate” (Taisho Pharmaceutical Co., Ltd, priority 2006, dated 2011).

SMILES strings stand for the structures.

One may read the inhibition as the drop in the measured response relative to a control, in per cent. In general, Kd refers to the free concentration of one partner at which half of the binding sites on the other are occupied at equilibrium, for simple one-to-one binding. Broadly, the IC50 is the concentration needed to halve the response being measured.

One assay deals with T1, human Edg-1 (S1P1) (Homo sapiens, UniProt P21453).
T1 construct: expressed in transfected cells; host or cells: HEK-293
T1 sequence (P21453 whole entry): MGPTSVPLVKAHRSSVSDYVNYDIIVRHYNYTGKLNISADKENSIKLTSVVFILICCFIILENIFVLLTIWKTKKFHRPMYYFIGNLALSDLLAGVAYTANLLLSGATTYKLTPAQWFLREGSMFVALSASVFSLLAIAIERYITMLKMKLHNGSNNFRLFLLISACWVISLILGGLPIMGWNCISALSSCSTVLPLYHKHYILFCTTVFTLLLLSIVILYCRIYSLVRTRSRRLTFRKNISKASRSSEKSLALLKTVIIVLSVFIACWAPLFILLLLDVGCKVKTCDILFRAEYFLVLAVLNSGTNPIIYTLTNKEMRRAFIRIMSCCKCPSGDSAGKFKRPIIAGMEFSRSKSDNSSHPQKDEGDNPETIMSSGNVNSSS
The experiment in a line: S1P1 binding inhibition test (membrane, [33P]-S1P). Conditions: compound 10 μM; [33P]-S1P 0.1 nM; human Edg-1 (S1P1) HEK-293 membrane fraction; read-out: Binding test (membrane) % inhibition (10 μM). The method, then:
The membrane fraction was obtained by treating the cells with a solubilizing buffer (1 mM Tris/HCl, pH 7.2) for 10 minutes on ice, centrifuging at 1000×g for 5 minutes to remove insoluble fractions, and then centrifuging at 40000×g for 30 minutes at 4° C. The resulting membrane fraction was dissolved in a binding buffer (20 mM Tris-HCl, pH 7.4, 100 mM NaCl, 15 mM NaF, 2 mM deoxypyridoxine, 4 mg/mL fatty acid-free BSA), and then [^33P]-S1P (manufactured by ARC, final concentration 0.1 nM) and a DMSO solution (final concentration of the compound 10^−5 M, final concentration of DMSO 0.1%) of the test compound were added. Thereafter, the mixture was stirred and then treated for one hour at 30° C. Using a harvester, the membrane fraction was harvested onto unifilter-96 GF/C filter (manufactured by Perkin Elmer), washing was carried out four times with the binding buffer, and the filter was dried. Twenty five μL Microscint 0 (manufactured by Perkin Elmer) was added, and radioactivity was measured using Top Count NXT (manufactured by Packard) to calculate the amount (A) of [^33P]-S1P bound to the membrane fraction at the time when the compound was added.
The same procedure was carried out in the absence of the test compound, and the amount (B) of [^33P]-S1P bound was calculated. Further, the same procedure was carried out in the absence of the test compound by use of HEK-293 cells to which no Edg-1 (S1P1) gene was introduced, and the background amount (C) of [^33P]-S1P bound was calculated.
Inhibition rate (%)=[1−(A−C)/(B−C)]×100.
Moreover, the concentration required for a test compound to produce 50% inhibition of the binding caused in the absence of the test compound was also calculated (IC50). The above membrane system binding test was performed in the presence of a test compound at various concentrations to calculate the inhibition rate of Edg-1(S1P1) binding at each concentration according to the above equation, followed by calculating an IC50 value for each compound with data analysis software, Origin (Lightstone Corp., Japan).
As to `CCn1c(C(C)NS(=O)(=O)c2cc(C)c(Cl)cc2Cl)cnc1Oc1ccc(C)cc1` (centres unmarked) [Compound 101], the inhibition at 10 µM came out at 107%.

`CCn1c(C(C)NS(=O)(=O)c2ccccc2C)cnc1Oc1ccc(C)cc1` (centres unmarked) [Compound 38]: the inhibition at 10 µM was found to be 79.8%.

Consider `CCn1c(C(C)NS(=O)(=O)c2cccc(Cl)c2C)cnc1Oc1ccc(C)cc1` (centres unmarked) [Compound 64], for which the inhibition at 10 µM amounted to 96.7%.

Consider `CCn1c(C(C)NS(=O)(=O)c2ccc3ccccc3c2)cnc1Oc1ccc(C)cc1` (centres unmarked) [Compound 28], for which the inhibition at 10 µM worked out at 114%.

With `CCn1c(C(C)NS(=O)(=O)c2ccc(Br)c(F)c2)cnc1Oc1ccc(C)cc1` (centres unmarked) [Compound 129], the inhibition at 10 µM was 102%.

`CCn1c(C(C)NS(=O)(=O)c2cccc(OC(F)F)c2)cnc1Oc1ccc(C)cc1` (centres unmarked) [Compound 117]: the inhibition at 10 µM was 87.3%.

On to `CCn1c(C(C)NS(=O)(=O)c2cc(C)c(Cl)cc2C)cnc1Oc1ccc(C)cc1` (centres unmarked) [Compound 16], for which the inhibition at 10 µM is 109%.

On to `CCn1c(C(C)NS(=O)(=O)c2cc(Cl)ccc2Cl)cnc1Oc1ccc(C)cc1` (centres unmarked) [Compound 17], for which the inhibition at 10 µM turned out to be 80%.

With `CCn1c(C(C)NS(=O)(=O)c2ccc(OC)c(OC)c2)cnc1Oc1ccc(C)cc1` (centres unmarked) [Compound 19], the inhibition at 10 µM was 87.3%.

Take `CCn1c(C(C)NS(=O)(=O)c2cccc3ccccc23)cnc1Oc1ccc(C)cc1` (centres unmarked) [Compound 27]: the inhibition at 10 µM was found to be 68.5%.

As to `CCn1c(C(C)NS(=O)(=O)c2ccc3nsnc3c2)cnc1Oc1ccc(C)cc1` (centres unmarked) [Compound 147], the inhibition at 10 µM turned out to be 73.2%.

Turning to `CCn1c(C(C)NS(=O)(=O)c2cc(Br)ccc2Br)cnc1Oc1ccc(C)cc1` (centres unmarked) [Compound 110], the inhibition at 10 µM was found to be 86.4%.

For `CCn1c(C(C)NS(=O)(=O)c2ccc(F)c(F)c2)cnc1Oc1ccc(C)cc1` (centres unmarked) [Compound 94], the inhibition at 10 µM was 86.5%.

Turning to `CCn1c(C(C)NS(=O)(=O)c2cccc(Cl)c2Cl)cnc1Oc1ccc(C)cc1` (centres unmarked) [Compound 59], the inhibition at 10 µM turned out to be 101%.

With `CCn1c(C(C)NS(=O)(=O)c2cc(Cl)cc(Cl)c2)cnc1Oc1ccc(C)cc1` (centres unmarked) [Compound 63], the inhibition at 10 µM turned out to be 95.3%.

With `CCn1c(C(C)NS(=O)(=O)c2c(F)c(Br)cc(F)c2Br)cnc1Oc1ccc(C)cc1` (centres unmarked) [Compound 102], the inhibition at 10 µM turned out to be 78.2%.

As for `CCn1c(C(C)NS(=O)(=O)c2c(Cl)cc(Cl)cc2Cl)cnc1Oc1ccc(C)cc1` (centres unmarked) [Compound 78], the inhibition at 10 µM is 66.7%.

Regarding `CCn1c(Oc2ccc(C)cc2)cnc1C(C)NS(=O)(=O)c1ccc(Cl)c(Cl)c1` (centres unmarked) [Compound 179, 3,4-Dichloro-N-[1-(1-ethyl-5-(4-methylphenoxy)-1H-imidazol-2-yl)-ethyl]-benzenesulfonamide], the inhibition at 10 µM is 95.9%.

For `CCn1c(C(C)NS(=O)(=O)c2c(C)cc(Cl)cc2Cl)cnc1Oc1ccc(C)cc1` (centres unmarked) [Compound 108], the inhibition at 10 µM worked out at 81.3%.

In the case of `CC[C@@H](NS(=O)(=O)c1ccc(Cl)c(Cl)c1)c1cnc(Oc2ccc(F)cc2)n1CC` [Compound 253, (R)-(+)-3,4-Dichloro-N-{1-[3-ethyl-2-(4-fluorophenoxy)-3H-imidazol-4-yl]-propyl}-benzenesulfonamide], the inhibition at 10 µM is 100%.

On to `CCn1c(C(C)NS(=O)(=O)c2c(Cl)cccc2Cl)cnc1Oc1ccc(C)cc1` (centres unmarked) [Compound 18], for which the inhibition at 10 µM amounted to 72.8%.

As to `CCn1c(C(C)NS(=O)(=O)c2csc3ccccc23)cnc1Oc1ccc(C)cc1` (centres unmarked) [Compound 178], the inhibition at 10 µM stood at 64.2%.

On to `CCn1c(C(C)NS(=O)(=O)c2ccc(C)c(F)c2)cnc1Oc1ccc(C)cc1` (centres unmarked) [Compound 126], for which the inhibition at 10 µM stood at 99.3%.

Take `CCn1c(C(C)NS(=O)(=O)c2ccc(C)c(C)c2)cnc1Oc1ccc(C)cc1` (centres unmarked) [Compound 133]: the inhibition at 10 µM worked out at 104%.

As to `CCn1c(C(C)NS(=O)(=O)c2cccc(Cl)c2)cnc1Oc1ccc(C)cc1` (centres unmarked) [Compound 84], the inhibition at 10 µM worked out at 72.4%.

`CCn1c(C(C)NS(=O)(=O)c2c(C)c(C)cc(C)c2C)cnc1Oc1ccc(C)cc1` (centres unmarked) [Compound 58]: the inhibition at 10 µM turned out to be 66.4%.

As to `CCn1c(C(C)NS(=O)(=O)c2ccc(Cl)cc2F)cnc1Oc1ccc(C)cc1` (centres unmarked) [Compound 120], the inhibition at 10 µM was 81.2%.

`CCn1c(C(C)NS(=O)(=O)c2c(F)cccc2F)cnc1Oc1ccc(C)cc1` (centres unmarked) [Compound 103]: the inhibition at 10 µM turned out to be 53%.

As to `CCn1c(C(C)NS(=O)(=O)c2ccc(S(C)(=O)=O)cc2)cnc1Oc1ccc(C)cc1` (centres unmarked) [Compound 25], the inhibition at 10 µM amounted to 62%.

In the case of `CCn1c(C(C)NS(=O)(=O)c2cc(C(F)(F)F)ccc2Cl)cnc1Oc1ccc(C)cc1` (centres unmarked) [Compound 104], the inhibition at 10 µM came to 70.9%.

On to `CCn1c(C(C)NS(=O)(=O)c2cc(F)c(Br)cc2F)cnc1Oc1ccc(C)cc1` (centres unmarked) [Compound 67], for which the inhibition at 10 µM turned out to be 84.6%.

As to `CCc1cc(Br)ccc1S(=O)(=O)NC(C)c1cnc(Oc2ccc(C)cc2)n1CC` (centres unmarked) [Compound 87], the inhibition at 10 µM is 65.6%.

`CCCc1ccc(S(=O)(=O)NC(C)c2cnc(Oc3ccc(C)cc3)n2CC)cc1` (centres unmarked) [Compound 56]: the inhibition at 10 µM came to 57.3%.

For the compound `CCn1c(C(C)NS(=O)(=O)c2cccc(Br)c2)cnc1Oc1ccc(C)cc1` (centres unmarked) [Compound 9], the inhibition at 10 µM was 113%.

Take `CCn1c(C(C)NS(=O)(=O)c2ccc(Br)cc2)cnc1Oc1ccc(C)cc1` (centres unmarked) [Compound 5]: the inhibition at 10 µM was 106%.

As for `CCn1c(C(C)NS(=O)(=O)c2cc(Br)ccc2OC)cnc1Oc1ccc(C)cc1` (centres unmarked) [Compound 69], the inhibition at 10 µM was found to be 82.9%.

As for `CCn1c(C(C)N(C)S(=O)(=O)c2ccc(Cl)c(Cl)c2)cnc1Oc1ccc(Cl)cc1` (centres unmarked) [Compound 248, 3,4-Dichloro-N-{1-[2-(4-chlorophenoxy)-3-ethyl-3H-imidazol-4-yl]-ethyl}-N-methyl-benzenesulfonamide], the inhibition at 10 µM was 90.2%.

With `CCn1c(C(C)NS(=O)(=O)c2ccc(Cl)c(Cl)c2)cnc1Oc1ccc(C)cc1` (centres unmarked) [Compound 74, 3,4-Dichloro-N-[1-(3-ethyl-2(4-methylphenoxy)-3H-imidazol-4-yl)-ethyl]-benzenesulfonamide], the inhibition at 10 µM is 101%.

With `CCn1c(C(C)NS(=O)(=O)c2ccc(Cl)c(Cl)c2)cnc1Oc1cccc(NS(C)(=O)=O)c1` (centres unmarked) [Compound 234, 3,4-Dichloro-N-{1-[3-ethyl-2-(3-methanesulfonylaminophenoxy)-3H-imidazol-4-yl]-ethyl}-benzenesulfonamide], the inhibition at 10 µM was found to be 98.1%.

With `CCn1c(C(C)NS(=O)(=O)c2ccc(-c3ccno3)s2)cnc1Oc1ccc(C)cc1` (centres unmarked) [Compound 111], the inhibition at 10 µM was 59.6%.

Turning to `CCn1c(C(C)NS(=O)(=O)c2ccc(Cl)c(Cl)c2Cl)cnc1Oc1ccc(C)cc1` (centres unmarked) [Compound 57], the inhibition at 10 µM worked out at 103%.

On to `CCn1c(C(C)NS(=O)(=O)c2ccc(Br)c(C)c2)cnc1Oc1ccc(C)cc1` (centres unmarked) [Compound 122], for which the inhibition at 10 µM was 100%.

Turning to `CCn1c(C(C)NS(=O)(=O)c2cccc(C)c2)cnc1Oc1ccc(C)cc1` (centres unmarked) [Compound 41], the inhibition at 10 µM stood at 82.3%.

Consider `CCn1c(C(C)NS(=O)(=O)c2c(C)cccc2Cl)cnc1Oc1ccc(C)cc1` (centres unmarked) [Compound 60], for which the inhibition at 10 µM was 64.5%.

As for `CCn1c(C(C)NS(=O)(=O)c2cccc(C(C)=O)c2)cnc1Oc1ccc(C)cc1` (centres unmarked) [Compound 161], the inhibition at 10 µM is 71.2%.

In the case of `CCn1c(C(C)NS(=O)(=O)c2ccc(Cl)c3nonc23)cnc1Oc1ccc(C)cc1` (centres unmarked) [Compound 12], the inhibition at 10 µM amounted to 68.1%.

Consider `CCn1c(C(C)NS(=O)(=O)c2ccc(F)cc2C)cnc1Oc1ccc(C)cc1` (centres unmarked) [Compound 127], for which the inhibition at 10 µM amounted to 86.4%.

Take `CCn1c(C(C)NS(=O)(=O)c2cc(C)ccc2F)cnc1Oc1ccc(C)cc1` (centres unmarked) [Compound 134]: the inhibition at 10 µM was found to be 81%.

Regarding `CCn1c(C(C)NS(=O)(=O)c2ccc3c(c2)OCCO3)cnc1Oc1ccc(C)cc1` (centres unmarked) [Compound 144], the inhibition at 10 µM worked out at 94.1%.

Regarding `CCn1c(C(C)NS(=O)(=O)CCc2cccc3ccccc23)cnc1Oc1ccc(C)cc1` (centres unmarked) [Compound 29], the inhibition at 10 µM was determined as 52.5%.

For `CCn1c(C(C)NS(=O)(=O)c2ccc(Cl)cc2)cnc1Oc1ccc(C)cc1` (centres unmarked) [Compound 11], the inhibition at 10 µM amounted to 103%.

On to `CCn1c(C(C)NS(=O)(=O)c2cc(Cl)ccc2F)cnc1Oc1ccc(C)cc1` (centres unmarked) [Compound 128], for which the inhibition at 10 µM came out at 65.6%.

On to `CCn1c(C(C)NS(=O)(=O)c2ccc(Cl)cc2Cl)cnc1Oc1ccc(C)cc1` (centres unmarked) [Compound 79], for which the inhibition at 10 µM is 90.1%.

Staying with this assay, now noted: human Edg-1 (S1P1) gene transferred HEK-293 membrane fraction.
For the compound `CCCCCCCCCCCCC/C=C/[C@@H](O)[C@@H](N)COP(=O)(O)O` [[^33P]-S1P, Sphingosine-1-phosphate], the Kd is 0.15 nM.

Still in this assay, the particulars now being: membrane system binding test, various concentrations.
In the case of `CC[C@@H](NS(=O)(=O)c1ccc(Cl)c(Cl)c1)c1cnc(Oc2ccc(F)cc2)n1CC` [Compound 253, (R)-(+)-3,4-Dichloro-N-{1-[3-ethyl-2-(4-fluorophenoxy)-3H-imidazol-4-yl]-propyl}-benzenesulfonamide], the IC50 worked out at 27.5 nM.

Compound `CCn1c(C(C)NS(=O)(=O)c2ccc(Cl)c(Cl)c2)cnc1Oc1cccc(NS(C)(=O)=O)c1` (centres unmarked) [Compound 234, 3,4-Dichloro-N-{1-[3-ethyl-2-(3-methanesulfonylaminophenoxy)-3H-imidazol-4-yl]-ethyl}-benzenesulfonamide] displayed an IC50 of no more than 35 nM.
